{"source": "paper PMC10280969", "about": "“A green leaf volatile, (Z)-3-hexenyl-acetate, mediates differential oviposition by Spodoptera frugiperda on maize and rice” (BMC Biology, 2023)", "test_in_all_cases": "two-electrode voltage clamp, Xenopus oocytes", "type_in_all_cases": "cell-based", "settings_in_all_cases": "10^-4 M odorant; Ca2+-free Ringer buffer pH 7.6; agonist", "key": {"SfruOR5": {"biological_target": "T1, SfruOR5 (Spodoptera frugiperda, UniProt A0A9R0ELQ8)", "T1 construct": "gene LOC118270580; full-length ORF, pT7TS cRNA, Xenopus laevis oocytes; with Odorant receptor coreceptor", "T1 sequence (A0A9R0ELQ8 1-379)": "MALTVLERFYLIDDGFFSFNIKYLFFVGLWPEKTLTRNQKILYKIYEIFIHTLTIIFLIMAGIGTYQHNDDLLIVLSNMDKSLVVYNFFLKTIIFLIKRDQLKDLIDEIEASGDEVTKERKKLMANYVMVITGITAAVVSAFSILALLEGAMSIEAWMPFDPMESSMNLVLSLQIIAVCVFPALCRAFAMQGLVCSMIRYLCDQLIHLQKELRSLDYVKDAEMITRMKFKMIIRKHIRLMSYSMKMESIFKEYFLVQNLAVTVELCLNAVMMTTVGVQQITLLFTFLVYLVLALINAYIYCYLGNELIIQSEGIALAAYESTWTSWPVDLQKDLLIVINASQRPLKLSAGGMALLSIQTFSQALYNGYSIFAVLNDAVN", "T1 sequence (A0A9F1UC78 1-473 partner)": "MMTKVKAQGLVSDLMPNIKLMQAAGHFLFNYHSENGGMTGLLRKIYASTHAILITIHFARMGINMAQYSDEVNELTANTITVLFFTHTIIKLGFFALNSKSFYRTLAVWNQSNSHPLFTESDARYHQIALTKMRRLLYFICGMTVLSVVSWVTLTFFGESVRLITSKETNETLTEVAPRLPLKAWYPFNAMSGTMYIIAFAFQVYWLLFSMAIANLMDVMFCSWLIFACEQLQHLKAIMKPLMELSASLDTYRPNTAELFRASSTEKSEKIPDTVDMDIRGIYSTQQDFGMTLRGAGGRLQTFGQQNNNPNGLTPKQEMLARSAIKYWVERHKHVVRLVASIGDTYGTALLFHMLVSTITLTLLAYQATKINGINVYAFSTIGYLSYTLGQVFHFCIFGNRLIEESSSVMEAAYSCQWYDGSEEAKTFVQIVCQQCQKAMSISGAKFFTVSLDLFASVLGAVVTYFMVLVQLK"}, "SfruOR9": {"biological_target": "T2, SfruOR9 (Spodoptera frugiperda, UniProt A0A9R0EEX7)", "T2 construct": "gene LOC118261888; full-length ORF, pT7TS cRNA, Xenopus laevis oocytes; with Odorant receptor coreceptor", "T2 sequence (A0A9R0EEX7 1-400)": "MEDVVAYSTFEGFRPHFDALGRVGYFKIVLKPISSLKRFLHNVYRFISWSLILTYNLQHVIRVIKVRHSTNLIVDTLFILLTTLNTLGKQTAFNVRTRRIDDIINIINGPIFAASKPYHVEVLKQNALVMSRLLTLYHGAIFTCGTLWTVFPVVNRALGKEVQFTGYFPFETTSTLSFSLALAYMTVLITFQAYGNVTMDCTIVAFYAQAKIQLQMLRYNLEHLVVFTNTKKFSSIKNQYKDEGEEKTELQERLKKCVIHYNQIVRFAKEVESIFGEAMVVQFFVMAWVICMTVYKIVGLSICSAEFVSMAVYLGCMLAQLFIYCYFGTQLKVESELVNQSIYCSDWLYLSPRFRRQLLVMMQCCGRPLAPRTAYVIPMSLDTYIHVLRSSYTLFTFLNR", "T2 sequence (A0A9F1UC78 1-473 partner)": "T1 sequence (A0A9F1UC78 1-473 partner)"}, "SfruOR23/ORco": {"biological_target": "T3, SfruOR23/ORco (Spodoptera frugiperda, UniProt A0A9R0EA99)", "T3 construct": "gene LOC118268273; full-length ORF, pT7TS cRNA, Xenopus laevis oocytes, with ORco; with Odorant receptor coreceptor", "T3 sequence (A0A9R0EA99 1-429)": "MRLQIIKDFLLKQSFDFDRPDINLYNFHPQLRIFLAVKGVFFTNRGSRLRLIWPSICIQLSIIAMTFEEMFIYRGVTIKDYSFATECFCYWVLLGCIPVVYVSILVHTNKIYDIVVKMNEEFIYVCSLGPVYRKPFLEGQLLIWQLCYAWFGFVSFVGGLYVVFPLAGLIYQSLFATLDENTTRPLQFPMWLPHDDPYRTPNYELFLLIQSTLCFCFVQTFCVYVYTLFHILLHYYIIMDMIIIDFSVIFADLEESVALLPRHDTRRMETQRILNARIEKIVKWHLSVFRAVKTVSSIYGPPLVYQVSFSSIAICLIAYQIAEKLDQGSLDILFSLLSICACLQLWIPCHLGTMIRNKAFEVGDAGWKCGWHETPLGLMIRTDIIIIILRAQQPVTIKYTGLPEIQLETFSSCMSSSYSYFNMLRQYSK", "T3 sequence (A0A9F1UC78 1-473 partner)": "T1 sequence (A0A9F1UC78 1-473 partner)"}, "SfruOR17": {"biological_target": "T4, SfruOR17 (Spodoptera frugiperda, UniProt A0A9R0D2T2)", "T4 construct": "gene LOC118267896; full-length ORF, pT7TS cRNA, Xenopus laevis oocytes; with Odorant receptor coreceptor", "T4 sequence (A0A9R0D2T2 1-395)": "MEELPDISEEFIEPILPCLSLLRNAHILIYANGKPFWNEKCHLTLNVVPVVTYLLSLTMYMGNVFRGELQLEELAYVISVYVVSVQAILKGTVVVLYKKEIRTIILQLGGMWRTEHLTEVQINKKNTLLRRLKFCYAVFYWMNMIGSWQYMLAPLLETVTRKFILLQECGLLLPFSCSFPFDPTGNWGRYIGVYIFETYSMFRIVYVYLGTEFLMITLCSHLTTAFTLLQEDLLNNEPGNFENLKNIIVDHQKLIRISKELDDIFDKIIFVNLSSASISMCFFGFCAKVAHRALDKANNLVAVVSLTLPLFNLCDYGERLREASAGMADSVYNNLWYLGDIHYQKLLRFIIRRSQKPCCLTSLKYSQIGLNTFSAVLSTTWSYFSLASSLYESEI", "T4 sequence (A0A9F1UC78 1-473 partner)": "T1 sequence (A0A9F1UC78 1-473 partner)"}}}
{"smiles": "CC/C=C\\CCOC(C)=O", "note": "[(Z)-3-hexenyl-acetate]", "values": [{"measurement": "inward current response", "setting": "SfruOR5", "result": "SfruOR5, SfruOR9, SfruOR17, SfruOR23, and SfruOR25 responded to the oviposition stimulant (Z)-3-hexenyl-acetate"}, {"measurement": "inward current response", "setting": "SfruOR9", "result": "SfruOR5, SfruOR9, SfruOR17, SfruOR23, and SfruOR25 responded to the oviposition stimulant (Z)-3-hexenyl-acetate"}, {"measurement": "inward current response", "setting": "SfruOR23/ORco", "result": "with SfruOR23/ORco showing the highest response"}, {"measurement": "inward current response", "setting": "SfruOR17", "result": "SfruOR5, SfruOR9, SfruOR17, SfruOR23, and SfruOR25 responded to the oviposition stimulant (Z)-3-hexenyl-acetate"}]}
